Experimental data as given in patent US20250137032A1, “TWO-COMPONENT SYSTEMS FOR USE IN CELL-FREE GENE EXPRESSION” (priority 2023, published 2025).
Where a name gives a salt, the structure may show the parent alone.

Assays:
NarX-RssA = molecular target: T1, NarX-RssA (Serratia marcescens, UniProt Q8GP19); assay: Cell-free iron-sensing NarX chimera, luciferase reporter; type: biochemical
T1 construct: All genes were; made in house; host or cells: cell-free expression in situ, myTXTL E. coli extract, with DMPC, POPC or DOPC vesicles

[1] = Dynamic light scattering of 100% POPC vesicles in the presence of ligands (liposome stability); type: physicochemical
[2] = literature value, cited from earlier work; for Kc (kBT) (6): bending rigidity; for CPP (4): critical packing parameter; for Tm (7): membrane transition temperature, in °C (unit assumed)
NarX-VanS Chimera = assay: Cell-free vancomycin-sensing NarX chimera, luciferase reporter; type: biochemical, Enterococcus faecium
[3] = system: cell-free protein synthesis; assay: Cell-free protein synthesis (myTXTL): NarX western blot band intensity and luminescence; type: biochemical, E. coli; conditions: increasing ligand concentration, NarX band intensity / luminescence (FIG. 7, FIG. 14)
Experimental: Protein expression was performed using the myTxTl system (Arbor Biosceinces). 5 μL reactions were assembled with 10 mM lipid, 0.1 nM plasmid encoding T7 RNA polymerase, 9.9 nM plasmids encoding NarX, NarL, and reporter gene (nano luciferase or GFP) in specified ratios, and various concentration of ligands. Cell-free reactions were allowed to progress at 30° C. for 16 hours. Luciferase luminescence was read using the NanoGlo luciferase system and GFP fluorescence (ex. 480 nm, em. 507 nm) was read using a Molecular Devices Spectra Max i3 plate reader. To calculate fold change, luminescence values in the presence of nitrate were divided by the luminescence values in the absence of nitrate for each replicate.
1 μL of cell-free reaction was diluted to 15 μL in Laemlli buffer and heated at 95° C. for 10 minutes. Samples were then loaded and run on a 12% Mini-PROTEAN TGX Precast Protein Gel (Bio-Rad) at 150 V for 90 minutes. Wet transfer was performed onto a PVDF membrane (Bio-Rad) for 45 min at 100 V. Membranes were then blocked for an hour at room temperature in 5% milk in TBST (pH 7.6:50 mM Tris, 150 mM NaCl, HCl to pH 7.6, 0.1% Tween) and incubated for 1 hour at room temperature or overnight at 4° C. with primary solution (anti-Flag (Sigma F1804) or anti-Myc (ab32), diluted 1:1000 in 5% milk in TBST). Primary antibody solution was decanted, and the membrane was washed three times for 5 minutes in TBST and then incubated in secondary solution at room temperature for 1 hour (HRP-anti-Mouse (CST 7076) diluted 1:3000 in 5% milk in TBST). Membranes were then washed in TBST and incubated with Clarity Western ECL Substrate (Bio-Rad) for 5 min. Blots were imaged using an Azure Biosystems c280 imager and band intensities were quantified with ImageJ.

[4] = plasmid concentrations which enabled functional NarX sensing
[5] = reporter plasmid reduced by 90%, DMPC, POPC, DOPC vesicles
[6] = 100% POPC vesicles in the presence of 100 μM ligand
[7] = 100% POPC vesicles in the presence of 1 mM ligand

## [Cl][Fe]([Cl])[Cl] [Iron, iron (III) chloride anhydrous]
NarX-RssA; [4]
  sensor response to ligand (gene expression): no gene expression was observed
NarX-RssA; [5]
  sensor response to ligand (luciferase expression): functional sensors
[1]; [6]
  Diameter (nm): 118.62 nm
  P.D.I.: 0.135

## CCCCCCCC/C=C\CCCCCCCC(=O)O[C@H](COC(=O)CCCCCCCCCCCCCCC)COP(=O)([O-])OCC(O)CO.[Na+] (mixture of isomers) [POPG, 1-palmitoyl-2-oleoyl-sn-glycero-3-phospho-(1′-rac-glycerol) (sodium salt)]
[2]
  Kc (kBT) (6): 26.9 kBT
  CPP (4): 0.7
  2 Dc (A) (2): 27.9 A
  Area (Å^2) (1): 66 Å^2
  C2:C2 (Å) (6): 26.88 Å
  DHH (Å) (2): 38.5 Å
  F (kcal/mol/Å) (6): 0.0036 kcal/mol/Å
  Ka (dyn/cm) (6): 180 dyn/cm
  Kc^PBM (6): 5.67
  Kg (10^−20 J) (6): −2.76 10^−20 J
  Kg/Kc (6): −0.24
  Kg^M (10^−20 J) (6): −1.43 10^−20 J
  Kg^M/Kc^M (6): −0.25
  Ktw (10^−20 J) (6): 1.05 10^−20 J
  Kθ (10^−20 J/nm^2) (6): 6.15 10^−20 J/nm^2
  Lipid Volume (A^3) (3): 1226.6 A^3
  P-C (Å) Head group thickness (6): 10.61 Å
  P:P (Å) (6): 37.49 Å
  δ (Å) (6): 9.57 Å
  Tm (7): −2

## CCCCCCCC/C=C\CCCCCCCC(=O)O[C@H](COC(=O)CCCCCCCCCCCCCCC)COP(=O)(O)OCCN [POPE, 1-palmitoyl-2-oleoyl-sn-glycero-3-phosphoethanolamine]
[2]
  Kc (kBT) (6): 31.2 kBT
  CPP (4): 1.08
  2 Dc (A) (2): 32.6 A
  # of lipid contacts (5): 1.5
  Area (Å^2) (1): 56.6 Å^2
  C2:C2 (Å) (6): 30.67 Å
  DHH (Å) (2): 43.4 Å
  F (kcal/mol/Å) (6): 0.2041 kcal/mol/Å
  Ka (dyn/cm) (6): 260 dyn/cm
  Kc^PBM (6): 10.78
  Kg (10^−20 J) (6): 5.85 10^−20 J
  Kg/Kc (6): 0.44
  Kg^M (10^−20 J) (6): 0.06 10^−20 J
  Kg^M/Kc^M (6): 0.01
  Ktw (10^−20 J) (6): 2.36 10^−20 J
  Kθ (10^−20 J/nm^2) (6): 8.04 10^−20 J/nm^2
  Lateral Pressure (pN/nm^2) (3): 456 pN/nm^2
  Lipid Volume (A^3) (3): 1176.8 A^3
  P-C (Å) Head group thickness (6): 10.88 Å
  P:P (Å) (6): 41.55 Å
  Ro (Å) (6): −2220 Å
  γ chain (6): 0.188
  δ (Å) (6): 10.12 Å
  Tm (7): 25

## CN[C@H](CC(C)C)C(=O)N[C@H]1C(=O)N[C@@H](CC(N)=O)C(=O)N[C@H]2C(=O)N[C@H]3C(=O)N[C@H](C(=O)N[C@H](C(=O)O)c4cc(O)cc(O)c4-c4cc3ccc4O)[C@H](O)c3ccc(c(Cl)c3)Oc3cc2cc(c3O[C@@H]2O[C@H](CO)[C@@H](O)[C@H](O)[C@H]2O[C@H]2C[C@](C)(N)[C@H](O)[C@H](C)O2)Oc2ccc(cc2Cl)[C@H]1O [Vancomycin, vancomycin hydrochloride]
NarX-VanS Chimera; [4]
  sensor response to ligand (gene expression): no gene expression was observed
NarX-VanS Chimera; [5]
  sensor response to ligand (luciferase expression): did not induce an increase in luciferase expression
[1]; [7]
  Diameter (nm): 124.88 nm
  P.D.I.: 0.189

## CCCCCCCCCCCCCC(=O)OC[C@H](COP(=O)([O-])OCC[N+](C)(C)C)OC(=O)CCCCCCCCCCCCC [DMPC, 1,2-dimyristoyl-sn-glycero-3-phosphocholine]
[2]
  Kc (kBT) (6): 29.3 kBT
  CPP (4): 1
  2 Dc (A) (2): 25.4 A
  Area (Å^2) (1): 60.6 Å^2
  C2:C2 (Å) (6): 24.54 Å
  DHH (Å) (2): 35.3 Å
  F (kcal/mol/Å) (6): −0.0225 kcal/mol/Å
  Ka (dyn/cm) (6): 210 dyn/cm
  Kc^PBM (6): 5.75
  Kg (10^−20 J) (6): −3.23 10^−20 J
  Kg/Kc (6): −0.26
  Kg^M (10^−20 J) (6): −1.32 10^−20 J
  Kg^M/Kc^M (6): −0.22
  Ktw (10^−20 J) (6): 2.18 10^−20 J
  Kθ (10^−20 J/nm^2) (6): 4.02 10^−20 J/nm^2
  Lateral Pressure (pN/nm^2) (3): 442 pN/nm^2
  Lipid Volume (A^3) (3): 1100 A^3
  P-C (Å) Head group thickness (6): 11.11 Å
  P:P (Å) (6): 35.65 Å
  Ro (Å) (6): −47 Å
  γ chain (6): 0.247
  δ (Å) (6): 9.48 Å
  Tm (7): 24

## CCCCCCCC/C=C\CCCCCCCC(=O)OC(COC(=O)CCCCCCCCCCCCCCC)COP(=O)([O-])OCC[N+](C)(C)C (stereo not drawn) [POPC, 1-palmitoyl-2-oleoyl-glycero-3-phosphocholine]
[2]
  Kc (kBT) (6): 31.7 kBT
  CPP (4): 0.61
  2 Dc (A) (2): 28.8 A
  # of lipid contacts (5): 2.75
  Area (Å^2) (1): 64.3 Å^2
  C2:C2 (Å) (6): 27.52 Å
  DHH (Å) (2): 37 Å
  F (kcal/mol/Å) (6): 0.0303 kcal/mol/Å
  Ka (dyn/cm) (6): 280 dyn/cm
  Kc^PBM (6): 9.5
  Kg (10^−20 J) (6): −1.38 10^−20 J
  Kg/Kc (6): −0.1
  Kg^M (10^−20 J) (6): −1.09 10^−20 J
  Kg^M/Kc^M (6): −0.17
  Ktw (10^−20 J) (6): 1.45 10^−20 J
  Kθ (10^−20 J/nm^2) (6): 5.52 10^−20 J/nm^2
  Lateral Pressure (pN/nm^2) (3): 517 pN/nm^2
  Lipid Volume (A^3) (3): 1231.2 A^3
  P-C (Å) Head group thickness (6): 11.02 Å
  P:P (Å) (6): 38.54 Å
  Ro (Å) (6): −315 Å
  γ chain (6): 0.198
  δ (Å) (6): 9.64 Å
  Tm (7): −9

## CCCCCCCC/C=C\CCCCCCCC(=O)OC[C@H](COP(=O)([O-])OCC[N+](C)(C)C)OC(=O)CCCCCCC/C=C\CCCCCCCC [DOPC, 1,2-dioleoyl-sn-glycero-3-phosphocholine]
[2]
  Kc (kBT) (6): 28.8 kBT
  CPP (4): 1.09
  2 Dc (A) (2): 28.8 A
  Area (Å^2) (1): 67.4 Å^2
  C2:C2 (Å) (6): 27.37 Å
  DHH (Å) (2): 36.7 Å
  F (kcal/mol/Å) (6): 0.061 kcal/mol/Å
  Ka (dyn/cm) (6): 290 dyn/cm
  Kc^PBM (6): 9.71
  Kg (10^−20 J) (6): −0.08 10^−20 J
  Kg/Kc (6): −0.01
  Kg^M (10^−20 J) (6): −0.84 10^−20 J
  Kg^M/Kc^M (6): −0.14
  Ktw (10^−20 J) (6): 0.99 10^−20 J
  Kθ (10^−20 J/nm^2) (6): 6.4 10^−20 J/nm^2
  Lateral Pressure (pN/nm^2) (3): 480 pN/nm^2
  Lipid Volume (A^3) (3): 1304.5 A^3
  P-C (Å) Head group thickness (6): 10.98 Å
  P:P (Å) (6): 38.35 Å
  γ chain (6): 0.18(5) ·
  δ (Å) (6): 9.41 Å
  Tm (7): −17

## O.O.O.O.O.O=S(=O)([O-])[O-].[Cu+2] [copper, copper (II) sulfate pentahydrate]
[3]
  effect on cell-free protein expression: inhibited cell-free protein expression
[3]; listed as Copper
  effect on cell-free protein expression: inhibits cell-free protein synthesis
